Results as given in ChEMBL document CHEMBL4619711, “Medicinal Chemistry of Inhibiting RING-Type E3 Ubiquitin Ligases” (J Med Chem, 2020).

Experiments:
[1] = Stability in rat blood assessed as parent compound remaining after 4 hrs; type: ADME, tissue-based; settings: read-out: Stability
[2] = Plasma clearance in mouse at iv dose; type: ADME, organism-based
[3] = biological target: von Hippel-Lindau disease tumor suppressor (Homo sapiens, UniProt P40337); experiment: Inhibition of VHL (unknown origin) by fluorescence polarization assay
Chain of von Hippel-Lindau disease tumor suppressor (P40337 whole entry): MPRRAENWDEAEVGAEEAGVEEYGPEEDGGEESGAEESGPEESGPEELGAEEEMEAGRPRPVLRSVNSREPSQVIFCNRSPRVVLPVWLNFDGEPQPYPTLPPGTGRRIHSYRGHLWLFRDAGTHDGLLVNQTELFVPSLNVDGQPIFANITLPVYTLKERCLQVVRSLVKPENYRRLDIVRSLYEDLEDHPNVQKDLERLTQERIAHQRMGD

SJSA-1 = experiment: cells; settings: Homo sapiens
[4] = Oral bioavailability in mouse; type: ADME, organism-based; settings: in vivo
[5] = biological target: T1, E3 ubiquitin-protein ligase XIAP (Homo sapiens, UniProt P98170); experiment: Inhibition of XIAP-BIR2 domain (unknown origin)
T1 sequence (P98170 whole entry, the tested form may be a part): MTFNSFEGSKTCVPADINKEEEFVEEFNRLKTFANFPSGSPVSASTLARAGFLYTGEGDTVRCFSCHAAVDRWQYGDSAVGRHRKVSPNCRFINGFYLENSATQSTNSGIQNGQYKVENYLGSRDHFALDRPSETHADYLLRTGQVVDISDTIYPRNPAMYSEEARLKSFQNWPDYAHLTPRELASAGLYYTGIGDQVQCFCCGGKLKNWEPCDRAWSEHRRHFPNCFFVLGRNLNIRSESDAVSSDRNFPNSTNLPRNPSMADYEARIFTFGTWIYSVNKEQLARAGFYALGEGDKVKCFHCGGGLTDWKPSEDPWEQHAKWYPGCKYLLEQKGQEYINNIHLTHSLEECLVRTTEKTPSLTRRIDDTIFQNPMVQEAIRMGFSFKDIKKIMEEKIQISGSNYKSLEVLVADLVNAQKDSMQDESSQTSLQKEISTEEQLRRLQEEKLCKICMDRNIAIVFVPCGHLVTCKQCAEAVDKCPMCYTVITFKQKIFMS

[6] = biological target: T1, E3 ubiquitin-protein ligase XIAP; experiment: Inhibition of XIAP-BIR3 domain (unknown origin)

Compound	remaining at 4 h [1] [%]	clearance [2] [L/h/kg]	IC50 [5] [µM]	IC50 [6] [µM]	also measured
CN[C@@H](C)C(=O)N[C@H]1COc2ccccc2N(Cc2c(OC)ccc3cc(Br)ccc23)C1=O	7	31.3	–	–	–
Cc1ncsc1-c1ccc(CNC(=O)[C@@H]2C[C@@H](O)CN2C(=O)c2cccc(N)c2C)cc1	–	–	–	–	IC50 [3]: 0.67 µM
CC(C)(C)C[C@@H]1N[C@@H](C(=O)N[C@H]2CC[C@H](O)CC2)[C@H](c2cccc(Cl)c2F)[C@@]12C(=O)Nc1cc(Cl)ccc12	–	–	–	–	IC50 (SJSA-1): 0.092 µM
CN[C@@H](C)C(=O)N[C@@H]1C(=O)N(Cc2c(C)ccc3ccccc23)c2ccc(C#N)cc2N(C(C)=O)[C@H]1C	–	0.258	–	–	bioavailability [4]: 28%
CN[C@@H](C)C(=O)N[C@H]1CCc2ccccc2N(Cc2c(OC)ccc3cc(Br)ccc23)C1=O	40	9.3	0.194	> 54	–
CC(C)(C)C[C@@H]1N[C@@H](C(=O)NCCN2CCOCC2)[C@H](c2cccc(Cl)c2F)[C@@]12C(=O)Nc1cc(Cl)ccc12	–	–	–	–	IC50 (SJSA-1): 0.5 µM
CN[C@@H](C)C(=O)NC1C(=O)N(Cc2c(C#N)n(-c3ccccc3C#N)c3ccccc23)c2ccccc2CC12CCOCC2 (some centres undefined)	–	2.46	0.039	3.1	–
Cc1cc(CC(=O)N2C[C@H](O)C[C@H]2C(=O)NCc2ccccc2Cl)on1	–	–	–	–	IC50 [3]: 117 µM
CN[C@@H](C)C(=O)NC1C(=O)N(Cc2c(OC)ccc3cc(Br)ccc23)c2ccccc2CC12CCOCC2 (some centres undefined)	88	3.6	0.065	24	–
